Experimental data as given in ChEMBL document CHEMBL1201862, “PubChem BioAssay data set” (2004).
Structures can show the parent of a compound that is named as a salt. The source made the active and inactive calls.

Key:
Mu-type opioid receptor = Mu-type opioid receptor (Homo sapiens, UniProt P35372); type: functional, cell-based;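 further: U2OS cells with beta-arrestin recruitment to OPRM1 by beta-gal complementation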
[1] = biological target: 5-hydroxytryptamine receptor 2A (Mus musculus, UniProt P35363); type: functional, cell-based;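 further: CHO-K1 cells with tagged receptor and beta-arrestin; agonist potency measured as compound-induced activation of the receptor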
5-hydroxytryptamine receptor 2A, sequence (P35363 whole entry): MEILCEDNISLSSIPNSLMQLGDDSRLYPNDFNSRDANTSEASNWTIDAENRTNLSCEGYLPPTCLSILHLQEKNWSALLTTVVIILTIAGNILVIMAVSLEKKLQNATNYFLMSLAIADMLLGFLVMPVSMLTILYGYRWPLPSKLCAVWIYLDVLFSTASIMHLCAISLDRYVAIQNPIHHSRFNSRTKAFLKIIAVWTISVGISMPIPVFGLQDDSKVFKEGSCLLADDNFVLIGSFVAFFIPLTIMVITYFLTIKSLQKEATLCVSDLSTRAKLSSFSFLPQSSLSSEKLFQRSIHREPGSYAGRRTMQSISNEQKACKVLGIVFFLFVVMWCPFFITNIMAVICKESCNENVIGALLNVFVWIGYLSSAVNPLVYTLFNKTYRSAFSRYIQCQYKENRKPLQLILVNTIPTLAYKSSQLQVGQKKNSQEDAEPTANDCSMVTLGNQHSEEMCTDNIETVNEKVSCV

[2] = Counterscreen for inhibitors of Trypanosoma brucei methionyl tRNA synthetase (MetRS): Luminescence-based cell-based high throughput dose response assay to identify compounds that are cytotoxic to Jurkat human T lymphocyte cells.; type: functional
Streptokinase A = biological target: T1, Streptokinase A (Streptococcus pyogenes serotype M1, UniProt P10520); experiment: S. pyogenes streptokinase expression inhibitors, potency, dose response, plasminogen activation absorbance, OD405 (AID 1914); type: functional, Streptococcus pyogenes M1 GAS;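 further: secreted streptokinase activity via plasminogen activation per viability signal from cell pellet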
T1 sequence (P10520 whole entry): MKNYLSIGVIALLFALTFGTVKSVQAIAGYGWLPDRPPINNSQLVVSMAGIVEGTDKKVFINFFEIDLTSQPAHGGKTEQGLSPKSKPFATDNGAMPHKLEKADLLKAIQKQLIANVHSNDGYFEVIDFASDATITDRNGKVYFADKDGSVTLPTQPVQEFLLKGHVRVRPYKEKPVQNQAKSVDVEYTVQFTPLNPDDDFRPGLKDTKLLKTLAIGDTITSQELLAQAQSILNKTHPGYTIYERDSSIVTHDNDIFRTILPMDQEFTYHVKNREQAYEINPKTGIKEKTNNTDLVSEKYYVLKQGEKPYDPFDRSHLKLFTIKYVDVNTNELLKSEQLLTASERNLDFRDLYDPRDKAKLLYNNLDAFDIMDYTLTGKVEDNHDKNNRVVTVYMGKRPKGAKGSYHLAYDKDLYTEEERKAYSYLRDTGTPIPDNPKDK

[3] = biological target: T2, Methionyl-tRNA synthetase, putative (Trypanosoma brucei brucei, UniProt Q38C91); type: functional, Trypanosoma brucei brucei strain 927/4 GUTat10.1
T2 sequence (Q38C91 whole entry): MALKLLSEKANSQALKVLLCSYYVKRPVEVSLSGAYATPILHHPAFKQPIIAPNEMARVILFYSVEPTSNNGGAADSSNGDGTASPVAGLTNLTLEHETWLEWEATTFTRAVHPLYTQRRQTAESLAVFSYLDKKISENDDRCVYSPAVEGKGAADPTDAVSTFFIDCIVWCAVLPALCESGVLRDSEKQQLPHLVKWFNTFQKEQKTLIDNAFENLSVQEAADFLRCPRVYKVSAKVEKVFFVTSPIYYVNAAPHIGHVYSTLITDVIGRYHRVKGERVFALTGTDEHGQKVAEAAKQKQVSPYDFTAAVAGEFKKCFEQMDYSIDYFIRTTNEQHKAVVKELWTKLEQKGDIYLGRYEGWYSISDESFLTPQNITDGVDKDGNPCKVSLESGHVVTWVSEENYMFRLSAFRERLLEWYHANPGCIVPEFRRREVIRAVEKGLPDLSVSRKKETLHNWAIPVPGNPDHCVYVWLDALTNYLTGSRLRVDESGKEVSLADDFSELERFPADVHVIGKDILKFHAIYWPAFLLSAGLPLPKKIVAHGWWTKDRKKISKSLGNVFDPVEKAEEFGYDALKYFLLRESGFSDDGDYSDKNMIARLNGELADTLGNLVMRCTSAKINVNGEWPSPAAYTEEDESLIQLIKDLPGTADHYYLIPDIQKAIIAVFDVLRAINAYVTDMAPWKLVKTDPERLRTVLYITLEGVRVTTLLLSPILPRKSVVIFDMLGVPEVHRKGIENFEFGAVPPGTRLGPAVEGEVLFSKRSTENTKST

Streptococcus = experiment: Group A Streptococcus viability loss, dose response, counter-screen for streptokinase expression inhibitor project, luminescence, BacTiterGlo (AID 1915); type: functional, organism-based;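 further: potency for reduction of bacterial viability or growth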
[4] = biological target: T2, Methionyl-tRNA synthetase, putative; type: functional, Trypanosoma brucei brucei strain 927/4 GUTat10.1; remark: listed apart in the source
[5] = test system: Streptococcus sp. 'group A'; experiment: growth inhibition of control SK(-) GAS strain, dose response, counter-screen for streptokinase expression inhibitor project, luminescence, kanamycin, BacTiterGlo, confirmation (AID 1900); type: functional, organism-based
Cytochrome P450 1A2 = biological target: T3, Cytochrome P450 1A2 (Homo sapiens, UniProt P05177);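 further: PubChem cytochrome P450 panel assay, CYP1A2 panel member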
T3 sequence (P05177 whole entry): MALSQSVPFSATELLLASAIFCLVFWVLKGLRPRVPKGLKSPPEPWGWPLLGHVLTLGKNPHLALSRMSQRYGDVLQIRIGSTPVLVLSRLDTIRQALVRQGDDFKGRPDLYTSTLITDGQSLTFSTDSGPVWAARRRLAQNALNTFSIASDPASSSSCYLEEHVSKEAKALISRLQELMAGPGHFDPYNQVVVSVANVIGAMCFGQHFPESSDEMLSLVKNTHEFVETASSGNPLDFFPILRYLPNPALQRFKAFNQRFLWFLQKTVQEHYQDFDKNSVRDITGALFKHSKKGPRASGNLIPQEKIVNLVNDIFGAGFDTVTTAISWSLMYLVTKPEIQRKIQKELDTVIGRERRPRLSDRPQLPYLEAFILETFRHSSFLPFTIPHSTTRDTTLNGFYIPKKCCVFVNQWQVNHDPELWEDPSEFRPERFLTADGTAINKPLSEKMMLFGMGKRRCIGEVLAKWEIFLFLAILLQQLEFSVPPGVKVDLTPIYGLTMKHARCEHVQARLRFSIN

[6] = HEK293T cell cytotoxicity, dose response, cytotoxicity control for HIV Vif inhibitor project, cherry-picks (AID 652208); type: functional, cell-based
Cytochrome P450 3A4 = Cytochrome P450 3A4 (Homo sapiens, UniProt P08684);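 further: CYP3A4 tested as one member of a cytochrome P450 panel screen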
Cytochrome P450 3A4, sequence (P08684 whole entry): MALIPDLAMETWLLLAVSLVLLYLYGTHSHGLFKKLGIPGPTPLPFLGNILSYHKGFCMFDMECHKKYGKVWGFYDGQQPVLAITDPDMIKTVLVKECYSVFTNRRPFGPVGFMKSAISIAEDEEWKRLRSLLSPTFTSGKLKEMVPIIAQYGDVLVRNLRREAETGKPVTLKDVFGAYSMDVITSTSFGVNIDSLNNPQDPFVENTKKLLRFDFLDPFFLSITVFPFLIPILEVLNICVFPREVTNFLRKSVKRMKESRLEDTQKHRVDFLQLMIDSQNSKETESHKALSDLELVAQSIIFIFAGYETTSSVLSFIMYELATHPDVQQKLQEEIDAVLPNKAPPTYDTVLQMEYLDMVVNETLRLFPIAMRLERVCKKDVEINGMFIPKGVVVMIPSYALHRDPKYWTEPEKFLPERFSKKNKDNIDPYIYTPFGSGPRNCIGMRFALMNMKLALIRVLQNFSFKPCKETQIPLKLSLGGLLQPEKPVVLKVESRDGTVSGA

H4 = experiment: Luminescence Cell-Based Dose Response HTS to Identify Activators of 5'UTR Stem-Loop Driven Prion Protein mRNA Translation in H4 Neuroglioblastoma Cells. [Related pubchem assays: 1829 (Project Summary), 1814 (Primary HTS)]; type: functional; settings: Homo sapiens
[7] = Luminescence Cell-Based Dose Confirmation HTS to Identify Activators of 5'UTR Stem-Loop Driven Alpha-Synuclein mRNA Translation in H4 Neuroglioblastoma Cells. [Related pubchem assays: 1829 (Project Summary), 1814 (Primary HTS)]; type: functional
[8] = Luminescence Cell-Based Dose Response HTS to Identify Activators of Luciferase Translation or Activity in H4 […] Cells. [Related pubchem assays: 1829 (Project Summary), 1814 (Primary HTS)]; type: functional
[9] = ADAM10 inhibitors, peptide cleavage, dose response, biochemical, QFRET (AID 743254);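 further: ADAM10 enzyme with the DM2 quenched FRET peptide as substrate; EDANS fluorescence gain as the protease cuts the substrate; inhibitor potency against ADAM10 proteolytic activity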
[10] = biological target: T4, Nuclear receptor subfamily 0 group B member 1 (Homo sapiens, UniProt P51843); type: functional, cell-based;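 further: HEK293T cells transfected with SF-1 and DAX-1 plus StAR promoter luciferase reporter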
T4 sequence (P51843 whole entry): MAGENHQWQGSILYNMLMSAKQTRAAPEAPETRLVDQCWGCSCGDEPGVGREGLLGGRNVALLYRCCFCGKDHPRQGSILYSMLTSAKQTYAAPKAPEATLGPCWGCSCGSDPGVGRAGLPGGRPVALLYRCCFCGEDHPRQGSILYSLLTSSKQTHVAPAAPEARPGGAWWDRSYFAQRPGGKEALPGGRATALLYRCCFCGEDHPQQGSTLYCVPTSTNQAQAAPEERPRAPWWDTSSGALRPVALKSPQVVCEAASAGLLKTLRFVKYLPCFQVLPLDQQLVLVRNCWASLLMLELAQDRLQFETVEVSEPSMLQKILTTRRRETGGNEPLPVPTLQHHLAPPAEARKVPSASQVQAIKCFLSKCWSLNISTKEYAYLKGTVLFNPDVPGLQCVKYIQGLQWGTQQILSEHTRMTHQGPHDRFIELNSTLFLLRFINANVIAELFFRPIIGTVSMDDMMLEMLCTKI

cells = type: functional, cell-based
[11] = Counterscreen for activators of the function of SWI/SNF related, matrix associated, actin dependent regulator of chromatin, subfamily a, member 2 (SMARCA2, BRM): Luminescence-based cell-based high throughput dose response assay to identify non-selective compounds using the VP16 reporter assay.; type: functional
[12] = biological target: SWI/SNF-related matrix-associated actin-dependent regulator of chromatin subfamily A member 2 (Homo sapiens, UniProt P51531); experiment: Luminescence-based cell-based high throughput dose response assay to identify activators of the function of SWI/SNF related, matrix associated, actin dependent regulator of chromatin, subfamily a, member 2 (SMARCA2, BRM).; type: functional
SWI/SNF-related matrix-associated actin-dependent regulator of chromatin subfamily A member 2, sequence (P51531 whole entry): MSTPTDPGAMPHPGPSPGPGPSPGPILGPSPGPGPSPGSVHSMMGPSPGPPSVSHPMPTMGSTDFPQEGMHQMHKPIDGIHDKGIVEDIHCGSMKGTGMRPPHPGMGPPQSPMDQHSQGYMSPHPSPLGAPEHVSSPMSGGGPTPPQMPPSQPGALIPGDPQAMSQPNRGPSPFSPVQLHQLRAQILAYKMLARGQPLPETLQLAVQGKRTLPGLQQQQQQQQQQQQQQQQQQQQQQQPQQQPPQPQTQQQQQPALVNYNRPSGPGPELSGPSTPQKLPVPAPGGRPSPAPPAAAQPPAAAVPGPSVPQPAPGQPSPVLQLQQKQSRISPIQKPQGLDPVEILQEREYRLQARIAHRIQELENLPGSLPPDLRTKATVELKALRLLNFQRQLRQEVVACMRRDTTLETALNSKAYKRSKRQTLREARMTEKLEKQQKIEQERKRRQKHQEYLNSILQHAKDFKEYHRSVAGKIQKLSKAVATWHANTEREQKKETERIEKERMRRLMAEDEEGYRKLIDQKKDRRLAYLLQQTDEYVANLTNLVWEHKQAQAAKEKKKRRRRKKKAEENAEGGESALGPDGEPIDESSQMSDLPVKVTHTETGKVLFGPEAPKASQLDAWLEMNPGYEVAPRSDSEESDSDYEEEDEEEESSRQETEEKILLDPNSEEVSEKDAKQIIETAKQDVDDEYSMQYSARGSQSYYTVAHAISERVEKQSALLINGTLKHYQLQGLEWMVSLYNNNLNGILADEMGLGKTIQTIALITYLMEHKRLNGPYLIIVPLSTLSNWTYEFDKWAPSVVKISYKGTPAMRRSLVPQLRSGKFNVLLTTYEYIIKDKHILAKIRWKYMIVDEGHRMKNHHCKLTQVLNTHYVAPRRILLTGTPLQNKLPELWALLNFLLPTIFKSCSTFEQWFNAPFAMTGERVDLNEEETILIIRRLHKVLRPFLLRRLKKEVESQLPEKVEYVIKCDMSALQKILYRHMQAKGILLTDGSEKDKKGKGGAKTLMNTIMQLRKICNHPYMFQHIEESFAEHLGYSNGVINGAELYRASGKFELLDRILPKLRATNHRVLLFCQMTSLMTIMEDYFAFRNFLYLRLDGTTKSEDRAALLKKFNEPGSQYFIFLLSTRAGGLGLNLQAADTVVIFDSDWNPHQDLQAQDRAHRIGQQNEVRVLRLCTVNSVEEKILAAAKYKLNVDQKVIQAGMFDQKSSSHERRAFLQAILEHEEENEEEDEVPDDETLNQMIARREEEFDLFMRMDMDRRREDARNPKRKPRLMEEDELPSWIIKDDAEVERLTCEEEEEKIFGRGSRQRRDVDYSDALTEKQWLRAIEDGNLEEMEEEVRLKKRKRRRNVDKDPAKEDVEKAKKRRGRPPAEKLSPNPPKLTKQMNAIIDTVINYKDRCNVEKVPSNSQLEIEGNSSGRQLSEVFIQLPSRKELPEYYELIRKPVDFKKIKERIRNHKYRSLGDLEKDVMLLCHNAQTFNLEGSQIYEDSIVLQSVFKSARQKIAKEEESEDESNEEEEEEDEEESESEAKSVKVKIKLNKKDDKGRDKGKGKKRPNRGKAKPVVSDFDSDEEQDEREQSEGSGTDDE

[13] = Jurkat T cell cytotoxicity, dose response, cytotoxicity control for P. falciparum gametocyte viability project, luminescence (AID 1117277); type: functional, cell-based;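 further: potency reflects loss of cellular ATP meaning fewer viable cells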
[14] = P. falciparum late gametocyte killing, dose response, luminescence (AID 1117278); type: functional, cell-based;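 further: gametocytes exposed to compound for 24 hours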
[15] = inhibitors of intracellular T. cruzi replication, confirmation, NIH3T3 host cells, beta-gal luminescence (AID 2044); type: functional, cell-based;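 further: intracellular parasites grown in NIH/3T3 mouse fibroblasts as host cells; luminescent beta-galactosidase reporter signal from transgenic T. cruzi replicating inside host cells; inhibitors lower the luminescence signal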
[16] = cytotoxicity toward NIH3T3 fibroblasts, dose response, counter-screen, cell-based, ATP luminescence, mouse fibroblasts (AID 2010); type: functional;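 further: cells exposed to compound for about 90 hours before reading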
Large T antigen = Large T antigen (Simian virus 40, UniProt P03070); type: functional, Betapolyomavirus macacae;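 further: Confirmatory-stage PubChem screen for compounds that inhibit SV40 T antigen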
Large T antigen, sequence (P03070 whole entry): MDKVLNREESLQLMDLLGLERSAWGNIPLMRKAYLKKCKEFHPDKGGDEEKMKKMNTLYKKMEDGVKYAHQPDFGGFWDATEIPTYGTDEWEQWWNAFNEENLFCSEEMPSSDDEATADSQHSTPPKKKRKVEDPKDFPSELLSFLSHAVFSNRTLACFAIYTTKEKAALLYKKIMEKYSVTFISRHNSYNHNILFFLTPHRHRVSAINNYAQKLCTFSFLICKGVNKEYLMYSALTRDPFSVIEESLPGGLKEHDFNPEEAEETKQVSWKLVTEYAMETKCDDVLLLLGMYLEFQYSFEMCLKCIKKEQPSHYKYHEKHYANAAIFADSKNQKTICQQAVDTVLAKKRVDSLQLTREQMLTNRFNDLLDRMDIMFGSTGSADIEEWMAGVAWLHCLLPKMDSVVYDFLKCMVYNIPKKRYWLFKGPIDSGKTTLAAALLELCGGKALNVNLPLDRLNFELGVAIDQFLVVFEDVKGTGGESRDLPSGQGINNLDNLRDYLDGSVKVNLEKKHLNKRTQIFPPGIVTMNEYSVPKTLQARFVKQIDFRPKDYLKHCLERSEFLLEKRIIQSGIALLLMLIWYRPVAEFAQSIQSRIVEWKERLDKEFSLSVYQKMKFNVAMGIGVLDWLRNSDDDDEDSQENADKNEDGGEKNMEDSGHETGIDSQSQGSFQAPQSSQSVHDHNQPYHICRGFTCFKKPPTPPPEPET

[17] = biological target: T5, Mitochondrial peptide methionine sulfoxide reductase (Bos taurus, UniProt P54149); experiment: Absorbance-based biochemical high throughput dose response assay for activators of Methionine sulfoxide reductase A (MsrA).; type: functional
T5 sequence (P54149 whole entry): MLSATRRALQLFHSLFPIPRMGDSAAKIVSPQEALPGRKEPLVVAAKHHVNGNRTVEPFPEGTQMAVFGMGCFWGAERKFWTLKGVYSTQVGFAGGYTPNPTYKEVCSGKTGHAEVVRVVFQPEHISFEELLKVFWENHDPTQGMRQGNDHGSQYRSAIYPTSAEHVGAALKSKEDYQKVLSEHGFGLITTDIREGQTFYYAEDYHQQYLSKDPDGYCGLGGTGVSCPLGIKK

[18] = biological target: Glucose-6-phosphate 1-dehydrogenase (Homo sapiens, UniProt P11413); experiment: human G6PD enzyme inhibitors, dose response, selectivity assay for P. falciparum G6PD inhibitor project, biochemical, fluorescence (AID 504792); type: functional
Glucose-6-phosphate 1-dehydrogenase, sequence (P11413 whole entry): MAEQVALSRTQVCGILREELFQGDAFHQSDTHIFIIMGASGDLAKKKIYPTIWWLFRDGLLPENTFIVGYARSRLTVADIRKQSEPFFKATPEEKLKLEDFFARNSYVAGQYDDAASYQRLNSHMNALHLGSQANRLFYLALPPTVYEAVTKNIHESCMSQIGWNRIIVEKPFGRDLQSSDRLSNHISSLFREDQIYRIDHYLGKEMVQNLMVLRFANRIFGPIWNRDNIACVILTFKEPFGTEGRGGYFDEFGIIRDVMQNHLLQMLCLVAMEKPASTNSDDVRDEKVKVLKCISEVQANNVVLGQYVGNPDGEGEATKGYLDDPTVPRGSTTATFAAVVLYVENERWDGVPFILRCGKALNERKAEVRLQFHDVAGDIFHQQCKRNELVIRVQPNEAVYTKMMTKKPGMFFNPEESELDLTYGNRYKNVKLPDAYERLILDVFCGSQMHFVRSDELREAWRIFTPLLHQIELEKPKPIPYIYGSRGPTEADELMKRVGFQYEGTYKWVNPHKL

Vero = experiment: cells; type: functional; settings: Chlorocebus sabaeus
INS1 = experiment: beta cell apoptosis inhibitors, cytokine rescue, dose response, luminescence, retest (AID 449756); type: functional, cell-based; settings: Rattus norvegicus;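 further: cell death triggered by IL-1 beta plus TNF-alpha plus IFN-gamma mixture; protective hits raise ATP signal compared with cytokine alone wells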
[19] = biological target: T6, COUP transcription factor 2 (Homo sapiens, UniProt P24468); experiment: Luminescence-based cell-based high throughput dose response assay to identify inhibitors of COUP-TFII (NR2F2).; type: functional;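 further: HEK293 cells transiently cotransfected with COUP-TFII expression vector and reporter; luciferase reporter luminescence driven by COUP-TFII from the pX2-168 reporter plasmid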
T6 sequence (P24468 whole entry): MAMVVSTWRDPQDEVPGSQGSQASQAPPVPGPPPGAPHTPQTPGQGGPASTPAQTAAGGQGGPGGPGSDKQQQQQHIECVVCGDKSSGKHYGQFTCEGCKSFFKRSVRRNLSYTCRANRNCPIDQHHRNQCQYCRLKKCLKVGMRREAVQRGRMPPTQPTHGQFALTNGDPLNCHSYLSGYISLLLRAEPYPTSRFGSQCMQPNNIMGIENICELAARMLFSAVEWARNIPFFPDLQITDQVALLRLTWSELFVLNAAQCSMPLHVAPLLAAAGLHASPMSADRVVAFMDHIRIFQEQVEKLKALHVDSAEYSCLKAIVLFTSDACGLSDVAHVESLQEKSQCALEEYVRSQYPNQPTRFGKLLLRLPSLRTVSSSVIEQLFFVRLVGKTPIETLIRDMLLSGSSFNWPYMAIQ

[20] = lymphoblastoid cell cytotoxicity, dose response, cytotoxicity control, plate reader, dry powder, set 2 (AID 624367); type: functional
Fatty acid synthase = Fatty acid synthase (Homo sapiens, UniProt P49327); experiment: FAS thioesterase domain inhibitors, SAR follow-up, biochemical, endpoint fluorescence intensity, powder samples (AID 652164); type: functional

Mu-type opioid receptor, sequence (P35372 whole entry): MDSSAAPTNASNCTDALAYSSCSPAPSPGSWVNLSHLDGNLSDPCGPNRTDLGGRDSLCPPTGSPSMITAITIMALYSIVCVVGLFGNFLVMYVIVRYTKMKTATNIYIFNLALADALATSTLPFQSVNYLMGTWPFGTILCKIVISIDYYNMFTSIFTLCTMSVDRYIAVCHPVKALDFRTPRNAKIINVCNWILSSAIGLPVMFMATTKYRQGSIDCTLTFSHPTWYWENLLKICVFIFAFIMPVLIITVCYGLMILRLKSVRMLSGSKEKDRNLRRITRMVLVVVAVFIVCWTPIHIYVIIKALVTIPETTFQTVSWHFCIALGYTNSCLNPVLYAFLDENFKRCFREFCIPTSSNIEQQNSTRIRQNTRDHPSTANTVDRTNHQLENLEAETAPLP

CCCN(CCc1ccccc1)C1CCc2c(O)cccc2C1 (stereo not drawn)
EC50 (Mu-type opioid receptor): 92.6 µM (inactive)
EC50 [1]: 0.0038 µM (active)

COc1ccc(Cc2nnc(S)n2NC(=O)Nc2ccc(Cl)c(Cl)c2)cc1
IC50 [2]: 54.2 µM (inactive)
EC50 (Streptokinase A): 20.3 µM (active)
IC50 [3]: 76.2 µM (inactive)
EC50 (Streptococcus): 63.3 µM (active)
IC50 [4]: 17.7 µM (inactive)
EC50 [5]: 3.39 µM (active)

Cc1nn(Cc2c(Cl)cccc2Cl)c(C)c1NC(=O)c1cnn2c(C(F)F)cc(-c3ccccc3)nc12
AC50 (Cytochrome P450 1A2): 31.6 µM (inconclusive)
AC50 [6]: 26 µM (active)
AC50 (Cytochrome P450 3A4): inconclusive

CCc1ccc(-c2cn(C3CCCCC3)c(S)n2)cc1
EC50 (H4): > 60 µM (not active)
EC50 [7]: 67.1 µM (active)
EC50 [8]: > 120 µM (not active)
IC50 [9]: > 69.5 µM (inactive)

COc1ccc2oc(C(=O)NCC3CCCO3)c(C)c2c1 (stereo not drawn)
IC50 [10]: > 67.6 µM (inactive)
IC50 (cells): > 67.6 µM (inactive)

O=C(COC(=O)c1nc(Cl)c(Cl)c(Cl)c1Cl)c1ccc[nH]1
EC50 [11]: > 91.1 µM (inactive)
EC50 [12]: > 91.1 µM (inactive)

O=c1[nH]sc2cc(F)ccc12
IC50 [13]: 22.2 µM (inactive)
IC50 [14]: > 36.3 µM (inactive)
EC50 [15]: 0.202 µM (active)
EC50 [16]: 16.1 µM (active)
IC50 (Large T antigen): 33.3 µM (active)
EC50 [17]: > 104 µM (inactive)
EC50 [11]: > 91.1 µM (inactive)
IC50 [18]: > 80 µM (inactive)
CC50 (Vero): > 25 µM (active)
EC50 [12]: > 91.1 µM (inactive)

CC(C)OCCCNc1[nH]cnc2c3cc(F)ccc3nc1-2
AC50 (INS1): 1.63 µM (active)
AC50 [6]: > 52 µM (inactive)
IC50 [19]: 6.62 µM (active)

Cc1noc(C)c1-c1ccc(C(=O)Nc2ccccc2)c2occc12
IC50 [10]: > 2.5 µM (active)
IC50 (cells): > 67.5 µM (inactive)

CN1C(=O)c2cc(NC(=O)c3ccc(C(F)(F)F)cc3)ccc2OC[C@H]2O[C@@H](CC(=O)NC3Cc4ccccc4C3)CC[C@H]21
AbsAC35 [20]: 40.05 µM

CN(C)S(=O)(=O)c1ccc(-c2csc(NC(=O)C3CC3)n2)cc1
IC50 (Fatty acid synthase): 1.23 µM (active)

CNC[C@H](O)c1cccc(O)c1 [PHENYLEPHRINE HYDROCHLORIDE]
EC50 (Mu-type opioid receptor): 92.4 µM (inactive)
EC50 [1]: 19.3 µM (inactive)
